Laboratory results as given in ChEMBL document CHEMBL1641422, “Bitriazolyl acyclonucleosides synthesized via Huisgen reaction using internal alkynes show antiviral activity against tobacco mosaic virus” (2011).

What follows are compounds tested on Tobacco mosaic virus (assay: Antiviral activity against Tobacco mosaic virus after 72 hrs by half-leaf juice rubbing method).
Format: functional
Design: concentration or dose not given beside the values

Compared with `NC(=O)c1nc(-c2nn[nH]c2-c2ccccc2)n(COCCO)n1`, `Cc1ccc(-c2[nH]nnc2-c2nc(C(N)=O)nn2COCCO)cc1` is lower in Activity: 36% for the first, 28% for the second.

First: COc1ccc(-c2[nH]nnc2-c2nc(C(N)=O)nn2COCCO)cc1
Second: NC(=O)c1nc(-c2nn[nH]c2-c2ccc(F)cc2)n(COCCO)n1
The Activity of the first is higher: 39% for the first, 29% for the second.

First: CCCCc1ccc(-c2[nH]nnc2-c2nc(C(N)=O)nn2COCCO)cc1
Second: CCCCCc1ccc(-c2[nH]nnc2-c2nc(C(N)=O)nn2COCCO)cc1
The Activity of the first is lower: 22% for the first, 44% for the second.

Compared with `NC(=O)c1nc(-c2nn[nH]c2-c2ccccc2C(F)(F)F)n(COCCO)n1`, `NC(=O)c1nc(-c2nn[nH]c2-c2cccc(C(F)(F)F)c2)n(COCCO)n1` is lower in Activity: 17% for the first, 16% for the second.

Compared with `NC(=O)c1nc(-c2nn[nH]c2-c2ccc(C(F)(F)F)cc2)n(COCCO)n1`, `NC(=O)c1nc(-c2nn[nH]c2-c2cccs2)n(COCCO)n1` is lower in Activity: 30% for the first, 14% for the second.

Compared with `CCCCCc1[nH]nnc1-c1nc(C(N)=O)nn1COCCO`, `NC(=O)c1nc(-c2nn[nH]c2C2=CCCCC2)n(COCCO)n1` is lower in Activity: 34% for the first, 23% for the second.

With `NC(=O)c1ncn([C@@H]2O[C@H](CO)[C@@H](O)[C@H]2O)n1` [RIBAVIRIN] the Activity was 39%.
